Measurements published in patent EP3057950B1, “PHENYL LINKED QUINOLINYL MODULATORS OF ROR-GAMMA-T” (Janssen Pharmaceutica NV, priority 2013, dated 2015).
Counter-ions that a name gives are not always drawn.

What was measured:
[1] = target: T1, wild type human RORγt ligand binding domain (RORγt LBD) (Homo sapiens, UniProt P51449); test: RORγt ThermoFluor® Assay (thermal shift, binding affinity); details: pH 7.0, estimated from concentration response curves
T1 construct: His-tag (N); TurboTEV protease cleavage site (ENLYFQG) (N); made in house; host or cells: E. coli (pHIS1, modified pET expression vector)
T1 sequence (P51449 269-508 limits assumed): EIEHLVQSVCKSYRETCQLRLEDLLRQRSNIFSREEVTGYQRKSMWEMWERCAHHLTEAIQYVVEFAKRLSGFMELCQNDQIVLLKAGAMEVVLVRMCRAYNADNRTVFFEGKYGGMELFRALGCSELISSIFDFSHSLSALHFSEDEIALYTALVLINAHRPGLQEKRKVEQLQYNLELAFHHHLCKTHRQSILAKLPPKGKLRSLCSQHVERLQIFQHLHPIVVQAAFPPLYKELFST
Description: This approach is applicable to a wide variety of systems, and rigorous in theoretical interpretation through quantitation of equilibrium binding constants (KD).
The shift in the melting point described as a ΔTm is proportional to the concentration and affinity of the ligand.
Protein and compound solutions are dispensed into black 384-well polypropylene PCR microplates (Abgene) and overlayed with silicone oil (1 µL, Fluka, type DC 200) to prevent evaporation.
Bar-coded assay plates are robotically loaded onto a thermostatically controlled PCR-type thermal block and then heated at a typical ramp-rate of 1 °C/min for all experiments. Fluorescence was measured by continuous illumination with UV light (Hamamatsu LC6) supplied via fiber optic and filtered through a band-pass filter (380-400 nm; >6 OD cutoff). Fluorescence emission of the entire 384-well plate was detected by measuring light intensity using a CCD camera (Sensys, Roper Scientific) filtered to detect 500 ± 25 nm, resulting in simultaneous and independent readings of all 384 wells. Images were collected at each temperature, and the sum of the pixel intensity in a given area of the assay plate was recorded versus temperature. Reference wells contained RORγt without compounds, and the assay conditions were as follows: • 0.065 mg/mL RORγt • 60 µM 1,8-ANS • 100 mM Hepes, pH 7.0 • 10 mM NaCl • 2.5 mM GSH • 0.002% Tween-20
Project compounds were arranged in a pre-dosed mother plate (Greiner Bio-one) wherein compounds are serially diluted in 100% DMSO by 1:2 from a high concentration of 10 mM over 12 columns within a series (column 12 is a reference well containing DMSO, no compound). The compounds were robotically dispensed directly into assay plates (1x = 46 nL) using a Hummingbird capillary liquid handling instrument (Digilab). Following compound dispense, protein and dye in buffer was added to achieve the final assay volume of 3 µL, followed by 1 µL of silicone oil.

[2] = target: T2, wild type human RORγt LBD (Homo sapiens, UniProt P51449); test: RORγt Reporter Assay (GAL4-RORγt LBD luciferase in HEK293T cells); assay type: cell-based; details: HEK293T cells; for IC50: compounds for 24 hours, read-out: RORγt reporter Assay, IC50; for inhibition at 6 µM: HEK-293T, read-out: RORγt reporter Assay, % inhibition @ 6 µM, @ 6 µM
T2 construct: expressed in transfected cells; host or cells: HEK293T
T2 sequence (P51449 269-508 limits assumed): T1 sequence (P51449 269-508 limits assumed)
Source text: A reporter assay was used to test functional activity of RORγt modulatory compounds on transcriptional activation driven by the RORγt LBD. Cells used in the assay were co-transfected with two constructs. The first construct, pBIND-RORγt LBD, contained the wild type human RORγt LBD fused to the DNA binding domain of the GAL4 protein. The second construct, pGL4.31 (Promega Cat no. C935A), contained multiple GAL4 responsive DNA elements upstream of firefly luciferase. […] The mutant construct was called pBIND-RORγt-AF2.
The pBIND vector contains the GAL4 DNA Binding Domain (GAL4 DBD) and the renilla luciferase gene under control of the SV40 promoter. Renilla luciferase expression serves as a control for transfection efficiency and cell viability.
The reporter assay was performed by transiently transfecting HEK293T cells with 5 µg of pBIND-RORγt LBD or pBIND-RORγt LBD-AF2 and 5 µg pGL4.31 (Promega Cat no. C935A) using Fugene 6 (Invitrogen Cat no. E2691) at a 1:6 ratio of DNA: Fugene 6 in a T-75 flask in which cells were at least 80% confluent. Twenty four hours after bulk transfection, cells were plated into 96-well plates at 50,000 cells/well in phenol-red free DMEM containing 5% Lipid Reduced FCS and Pen/Strep. Six hours after plating, cells were treated with compounds for 24 hours. Media was removed and cells were lysed with 50 µL 1x Glo Lysis Buffer (Promega). Dual Glo Luciferase Reagent (50 µL/well) was then added and firefly luciferase luminescence was read on an Envision after a ten minute incubation. Finally, Stop and Glo reagent (50 µL/well) was added and renilla luciferase luminescence was read on an Envision instrument after a ten minute incubation. To calculate the effect of compounds on RORγt activity, the ratio of firefly to renilla luciferase was determined and plotted against compound concentration. Agonist compounds increase RORγt-driven luciferase expression, and antagonist or inverse agonist compounds decrease luciferase expression.

| SMILES | Kd [1] [nM] | RORγt reporter Assay, % inhibition @ 6 µM [2] [%] | IC50 [2] [nM] | inhibition at 6 µM [2] [%] |
| --- | --- | --- | --- | --- |
| Cn1cncc1C(O)(c1ccc2nc(C#N)c(-c3ccccc3)c(C#N)c2c1)c1ccccn1 (single isomer, unassigned) [Example 18b, 6-(Hydroxy(1-methyl-1H-imidazol-5-yl)(pyridin-2-yl)methyl)-3-phenylquinoline-2,4-dicarbonitrile] | 14000 | 40 | > 6000 | – |
| Cn1cncc1C(O)(c1ccc2nc(C#N)c(-c3ccccc3)c(C#N)c2c1)c1ccccn1 (single isomer, unassigned) [Example 18c, 6-(Hydroxy(1-methyl-1H-imidazol-5-yl)(pyridin-2-yl)methyl)-3-phenylquinoline-2,4-dicarbonitrile] | 330 | 95 | 850 | – |
| COc1nc2c(C)cc(C(O)(c3ccc(C(F)(F)F)nc3)c3cncn3C)cc2c(C#N)c1-c1ccc(OC(F)(F)F)cc1 (single isomer, unassigned) [Example 19c, 6-(Hydroxy(1-methyl-1H-imidazol-5-yl)(6-(trifluoromethyl)pyridin-3-yl)methyl)-2-methoxy-8-methyl-3-(4-(trifluoromethoxy)phenyl)quinoline-4-carbonitrile] | 17 | 35 | > 6000 | – |
| CC(=O)N1CCC(C(O)(c2ccccc2)c2cc(C)c3nc(C#N)c(-c4ccccc4)c(C#N)c3c2)CC1 (single isomer, unassigned) [Example 21b, 6-((1-Acetylpiperidin-4-yl)(hydroxy)(phenyl)methyl)-8-methyl-3-phenylquinoline-2,4-dicarbonitrile] | 1300 | – | 1600 | 87 |
| Cc1cc(C(O)(c2ccc(Cl)cc2)c2cncn2C)cc2c(C#N)c(-c3ccccc3)c(C#N)nc12 (single isomer, unassigned) [Example 23b, 6-((4-Chlorophenyl)(hydroxy)(1-methyl-1H-imidazol-5-yl)methyl)-8-methyl-3-phenylquinoline-2,4-dicarbonitrile] | 15000 | 60 | ~4000 | – |
| Cc1cc(C(O)(c2ccc(C(F)(F)F)nc2)c2cncn2C)cc2c(C#N)c(-c3ccccc3)c(C#N)nc12 (single isomer, unassigned) [Example 25b, 6-(Hydroxy(1-methyl-1H-imidazol-5-yl)(6-(trifluoromethyl)pyridin-3-yl)methyl)-8-methyl-3-phenylquinoline-2,4-dicarbonitrile] | 3500 | – | ~2000 | 87 |
| CC(=O)N1CCC(C(O)(c2ccc(C(F)(F)F)nc2)c2cc(C)c3nc(C#N)c(-c4ccccc4)c(C#N)c3c2)CC1 (single isomer, unassigned) [Example 27b, 6-((1-Acetylpiperidin-4-yl)(hydroxy)(6-(trifluoromethyl)pyridin-3-yl)methyl)-8-methyl-3-phenylquinoline-2,4-dicarbonitrile] | 15000 | – | ~4000 | 80 |
| CC(=O)N1CCC(C(O)(c2ccc(C(F)(F)F)nc2)c2cc(C)c3nc(C#N)c(-c4ccccc4)c(C#N)c3c2)CC1 (single isomer, unassigned) [Example 27c, 6-((1-Acetylpiperidin-4-yl)(hydroxy)(6-(trifluoromethyl)pyridin-3-yl)methyl)-8-methyl-3-phenylquinoline-2,4-dicarbonitrile] | 820 | 96 | 2100 | – |
| COc1c(-c2ccccc2)c(C(F)(F)F)nc2ccc(C(O)(c3ccccn3)c3cncn3C)cc12 (single isomer, unassigned) [Example 32b, (4-Methoxy-3-phenyl-2-(trifluoromethyl)quinolin-6-yl)(1-methyl-1H-imidazol-5-yl)(pyridin-2-yl)methanol] | 770 | – | 1200 | 92 |
| COc1c(-c2ccccc2)c(C(F)(F)F)nc2ccc(C(O)(c3ccc(Cl)cc3)c3cncn3C)cc12 (single isomer, unassigned) [Example 33b, (4-Chlorophenyl)(4-methoxy-3-phenyl-2-(trifluoromethyl)quinolin-6-yl)(1-methyl-1H-imidazol-5-yl)methanol] | 13000 | 64 | ~4000 | – |

The remaining lines, values ahead:

| Kd [1] [nM] | RORγt reporter Assay, % inhibition @ 6 µM [2] [%] | IC50 [2] [nM] | inhibition at 6 µM [2] [%] | SMILES |
| --- | --- | --- | --- | --- |
| 450 | – | 1000 | 90 | CC(=O)N1CCC(C(O)(c2ccc3nc(C(F)(F)F)c(-c4ccccc4)c(Cl)c3c2)c2cncn2C)CC1 (single isomer, unassigned) [Example 34b, 1-(4-((4-Chloro-3-phenyl-2-(trifluoromethyl)quinolin-6-yl)(hydroxy)(1-methyl-1H-imidazol-5-yl)methyl)piperidin-1-yl)ethanone] |
| – | – | – | 97 | COc1c(-c2ccccc2)c(Cl)nc2ccc(C(O)(c3cnnn3C)c3cnc(C)n3C)cc12 (single isomer, unassigned) [Example 40b, (2-Chloro-4-metboxy-3-phenylquinolin-6-yl)(1,2-dimethyl-1H-imidazol-5-yl)(1-methyl-1H-1,2,3-triazol-5-yl)methanol] |
| 930 | – | ~2000 | 80 | Cc1nc(C)c(C(O)(c2ccc3nc(C#N)c(-c4ccccc4)c(C#N)c3c2)c2cnnn2C)s1 (single isomer, unassigned) [Example 47b, 6-((2,4-Dimethylthiazol-5-yl)(hydroxy)(1-methyl-1H-1,2,3-triazol-5-yl)methyl)-3-phenylquinoline-2,4-dicarbonitrile] |
| 900 | – | ~2000 | 87 | COc1nc2ccc(C(O)(c3ncccn3)c3cncn3C)cc2c(Cl)c1-c1ccccc1 (single isomer, unassigned) [Example 60b, (4-Chloro-2-methoxy-3-phenylquinolin-6-yl)(1-methyl-1H-imidazol-5-yl)pyrimidin-2-ylmethanol] |
| 7.2 | – | – | – | COCCN(C)c1nc2ccc(C(O)(c3ccc(C(F)(F)F)nc3)c3cncn3C)cc2c(Cl)c1-c1ccccc1 (centres unmarked) [Example 53, {4-Chloro-2-[(2-methoxyethyl)(methyl)amino]-3-phenylquinolin-6-yl}(1-methyl-1H-imidazol-5-yl)[6-(trifluoromethyl)pyridin-3-yl]methanol] |
| – | – | – | 98 | CON(C)c1nc2ccc(C(O)(c3ccc(Cl)cc3)c3cncn3C)cc2c(N(C)OC)c1-c1ccccc1 (centres unmarked) [Example 59, {2,4-Bis[methoxy(methyl)amino]-3-phenylquinolin-6-yl}(4-chlorophenyl)(1-methyl-1H-imidazol-5-yl)methanol] |
| 17000 | – | – | – | CC(C)Oc1nc2ccc(C(O)(c3cccnc3)c3cccc(Cl)c3)cc2cc1-c1ccccc1 (centres unmarked) [Example 79, (3-Chlorophenyl)(2-isopropoxy-3-phenylquinolin-6-yl)(pyridin-3-yl)methanol•TFA] |
| 14000 | – | – | – | CCOc1nc2ccc(C(O)(c3cccnc3)c3cccc(Cl)c3)cc2c(OCC)c1-c1ccccc1 (centres unmarked) [Example 81, (3-Chlorophenyl)(2,4-diethoxy-3-phenylquinolin-6-yl)(pyridin-3-yl)methanol•TFA] |
